# Patent US10940149B1, “Kinase inhibitor salts and compositions thereof” (HANDA ONCOLOGY, LLC, priority 2018, dated 2021)
# Counter-ions that a name gives are not always drawn.
# Experiments:
# [1] = HPLC impurity and stability of dasatinib lauryl sulfate salts and capsules (Example 54); format: physicochemical
# Method: The RRT was determined using HPLC with the following parameters:
# The mobile phase A was 0.05 M aqueous Ammonium Acetate (pH 5.25)/Acetonitrile/Methanol in a volume ratio of 90/5/5.
# The mobile phase B was 0.05 M aqueous Ammonium Acetate (pH 5.25)/Acetonitrile/Methanol in a volume ratio of 10/85/5.
# Additional methanol is added so the test sample is approximately 0.20 mg of dasatinib per mL.
# [2] = HPLC impurity and stability of nilotinib lauryl sulfate salts and dosage forms (Example 62); format: physicochemical
# Method: Mobile phase A was 0.25% Formic Acid/acetonitrile in a volume ratio of 90/10.
# Mobile phase B was 0.1% Formic Acid/acetonitrile in a volume ratio of 10/90.
# Additional diluent is added so the test sample is approximately 0.10 mg of nilotinib per mL.
# The test sample of the dosage forms prepared in Examples 60 F and 60 G were prepared by the following procedure:
# 1. Cut the tip of the capsule with scissors and squeeze the contents from the hole into the 100-mL volumetric flask. Cut the capsule into two parts and add the parts to the flask. Add 80% full of ethanol, sonicate for 10 minutes and stir at 800 rpm for 30 minutes to dissolve the contents completely.
# 2. Dilute to volume with ethanol, mix well by inverting the flask NLT 10 times
# 3. Pipette 3 ml into 25-mL amber volumetric flask and add ethanol to volume, mix well by inverting the flask NLT 10 times. The test sample is approximately 0.096 mg of nilotinib per mL.
# The nilotinib dilauryl sulfate salt prepared in Example 26 were tested for impurities and stability using HPLC with the following parameters:
# The test sample of the nilotinib dilauryl sulfate salt prepared in Example 26 were prepared by weighing about 10 mg of nilotinib dilauryl sulfate (equivalent to 5 mg of nilotinib) and transfer into a 25-mL amber volumetric flask, adding 20 mL of diluent (ethanol), sonicating for about 5 minutes and stirring at 800 rpms for about 5 minutes until the nilotinib dilauryl sulfate is dissolved. Additional diluent is added so the test sample is approximately 0.20 mg of nilotinib per mL.
# [3] = solubility of nilotinib salts, HPLC (Example 38A); format: physicochemical; details: 37 °C, pH 1, simulated gastric fluid, thermodynamic from solid
# Method: (§1) The reaction mass was filtered and the filtrate solution was measured by HPLC.
# [4] = physchem; details: 37 °C, pH 1, simulated gastric fluid, thermodynamic from solid
# Method: as §1
# [5] = solubility of dasatinib salts at 37° C., HPLC (Example 47A); format: physicochemical; details: for solubility: thermodynamic from solid
# Method: as §1
# [6] = solubility of nintedanib salts at room temperature, HPLC (Example 25A); format: physicochemical; details: thermodynamic from solid
# Method: as §1
# [7] = 60° C./75% R.H. 1 week, HDPE bottle, HPLC Inertsil ODS-3 (NLB-2LS method)
# [8] = Room temp., HPLC Inertsil ODS-3 (NLB-2LS method)
compound,measurement,setting,value
"CCCCCCCCCCCCOS(=O)(=O)O.Cc1nc(Nc2ncc(C(=O)Nc3c(C)cccc3Cl)s2)cc(N2CCN(CCO)CC2)n1 [Example 12, dasatinib monolauryl sulfate]",impurity at RRT 0.96,"[1]; 40° C./75% R.H., 1 Month",0.09
same,impurity at RRT 1.10 (2-Chloro-6-methylaniline),"[1]; 40° C./75% R.H., 1 Month",0.04
same,impurity at RRT 1.31 (DAS-6),"[1]; 40° C./75% R.H., 1 Month",0.02
same,impurity at RRT 0.87,"[1]; 40° C./75% R.H., 3 Months",0.02
same,impurity at RRT 0.94 (DAS PIP),"[1]; 40° C./75% R.H., 3 Months",0.03
same,impurity at RRT 0.96,"[1]; 40° C./75% R.H., 3 Months",0.10
same,impurity at RRT 1.10 (2-Chloro-6-methylaniline),"[1]; 40° C./75% R.H., 3 Months",0.03
same,impurity at RRT 1.31 (DAS-6),"[1]; 40° C./75% R.H., 3 Months",0.03
same,impurity at RRT 0.87,[1]; Initial,0.02
same,impurity at RRT 0.94 (DAS PIP),[1]; Initial,0.02
same,impurity at RRT 0.96,[1]; Initial,0.09
same,impurity at RRT 1.10 (2-Chloro-6-methylaniline),[1]; Initial,0.02
same,impurity at RRT 1.31 (DAS-6),[1]; Initial,0.02
"CCCCCCCCCCCCOS(=O)(=O)O.CCCCCCCCCCCCOS(=O)(=O)O.Cc1nc(Nc2ncc(C(=O)Nc3c(C)cccc3Cl)s2)cc(N2CCN(CCO)CC2)n1 [Example 13, dasatinib dilauryl sulfate]",impurity at RRT 0.87,"[1]; 40° C./75% R.H., 1 Month",0.06
same,impurity at RRT 0.94 (DAS PIP),"[1]; 40° C./75% R.H., 1 Month",0.09
same,impurity at RRT 0.96,"[1]; 40° C./75% R.H., 1 Month",0.14
same,impurity at RRT 1.31 (DAS-6),"[1]; 40° C./75% R.H., 1 Month",0.04
same,impurity at RRT 0.87,[1]; Initial,0.06
same,impurity at RRT 0.94 (DAS PIP),[1]; Initial,0.09
same,impurity at RRT 0.96,[1]; Initial,0.13
same,impurity at RRT 1.31 (DAS-6),[1]; Initial,0.02
"CCCCCCCCCCCCOS(=O)(=O)O.CCCCCCCCCCCCOS(=O)(=O)O.Cc1cn(-c2cc(NC(=O)c3ccc(C)c(Nc4nccc(-c5cccnc5)n4)c3)cc(C(F)(F)F)c2)cn1 [Example 26, nilotinib dilauryl sulfate]",impurity at RRT 0.81,[2]; [7],0.05%
same,impurity at RRT 1.09,[2]; [7],0.07%
same,impurity at RRT 1.16,[2]; [7],0.11%
same,impurity at RRT 1.28,[2]; [7],0.08%
same,impurity at RRT 1.09,[2]; [8],0.07%
same,impurity at RRT 1.16,[2]; [8],0.10%
same,impurity at RRT 1.28,[2]; [8],0.02%
"CCCCCCCCCCCCOS(=O)(=O)O.Cc1cn(-c2cc(NC(=O)c3ccc(C)c(Nc4nccc(-c5cccnc5)n4)c3)cc(C(F)(F)F)c2)cn1 [Example 46, nilotinib monolauryl sulfate]",impurity at RRT 1.16,"[2]; 60° C./75% R.H. 2 weeks, HDPE bottle, HPLC Xterra RP18 (NLB-1LS method)",0.07%
same,impurity at RRT 1.16,"[2]; Room temp., HPLC Xterra RP18 (NLB-1LS method)",0.07%
Cc1cn(-c2cc(NC(=O)c3ccc(C)c(Nc4nccc(-c5cccnc5)n4)c3)cc(C(F)(F)F)c2)cn1 [Nilotinib HCl],solubility,[3],3800 µg/mL
"Cc1ccc(Nc2nccc(N(C)c3ccc4c(C)n(C)nc4c3)n2)cc1S(N)(=O)=O [Pazopanib Hydrochloride, pazopanib hydrochloride]",solubility,[4],3360 µg/mL
Cc1nc(Nc2ncc(C(=O)Nc3c(C)cccc3Cl)s2)cc(N2CCN(CCO)CC2)n1 [dasatinib],"aqueous solubility, pH dependence",[5],varied with pH
same,solubility,"[5]; aqueous buffer, 0.05M acetate buffer, pH = 4.5",86.9 µg/mL
same,solubility,"[5]; aqueous buffer, 0.05M phosphate buffer, pH = 6.8",0.18 µg/mL
same,solubility,"[5]; simulated gastric fluid, 0.1N HCl, pH = 1.0",654 µg/mL
COC(=O)c1ccc2c(c1)NC(=O)/C2=C(\Nc1ccc(N(C)C(=O)CN2CCN(C)CC2)cc1)c1ccccc1 [nintedanib esylate],solubility,"[6]; aqueous buffer, 0.05 M acetate buffer, pH = 4.5",6260 µg/mL
same,solubility,"[6]; aqueous buffer, 0.05 M phosphate buffer, pH = 6.8",2.2 µg/mL
same,solubility,"[6]; simulated gastric fluid, 0.1 N HCl, pH = 1.0",107000 µg/mL
